Test results: patent US7311743B2, “Biofiltration apparatus and method for reducing methyl bromide concentration in a volume of gas” (Energy Resource Institute, Inc., priority 2004, dated 2007)

How the values were obtained:
[1] = system: methyl bromide-degrading bacteria; assay: Methyl bromide removal in the biotrickling filter
Text: A biotrickling filter was constructed as schematically represented in FIG. 2. The apparatus included three packed bed sections filled with lava rock, perlite or polyurethane as packing materials. Other equipment included an air supply, a methyl bromide supply, recycle liquid circulation, a nutrient supply (as a complete mineral medium), and a pH control by automatic addition of NaOH. The biotrickling filter was usually operated at standard conditions as specified in Table 1.
Cultures of methyl bromide-degrading bacteria were obtained by inoculating or exposing the substrate component of the apparatus with a variety of natural sources or materials, such as soil and sediment. A continuous supply of a low concentration (about 0 to about 10 g/m^3) of methyl bromide was supplied to the apparatus. The first signs of methyl bromide removal were observed after about 6-12 days of operation of the apparatus. The methyl bromide elimination capacity seemed to reach a maximum value after about 35-40 days of operation. During operation, the pH in the recycle liquid declined, small amounts of bromide were produced in the recycle liquid, and the CO2 concentration in the outlet air increased.
The fate of methyl bromide in the biotrickling filter was determined by comparing the rate of methyl bromide removal with the rates of CO2 production, bromide ion production and NaOH consumption as expected from the biodegradation reaction stoichiometry. Biodegradation of methyl bromide and pH control occur according to the following reactions 2CH3Br+3O2→2HBr+2 CO2+2H2O Equation 3 HBr+NaOH→NaBr+H2O Equation 4
The effect of the liquid recycle or trickling rate was examined at the lower and higher end of the range of recycle rates commonly employed in biotrickling filters. Methyl bromide removal was the same at a trickling rates of 2.55 and 22.2 L/h, corresponding to superficial liquid velocities of 2.0 and 17.7 m/h, respectively (Table 2).
The maximum elimination capacity of methyl bromide in the biotrickling filter was determined by stepwise increasing the methyl bromide concentration. Depending on the inlet concentration, the following phases can be distinguished: […]

[2] = Air/organic phase partition coefficient of methyl bromide; type: physicochemical; conditions: gas over liquid concentration
Procedure: If necessary, the air/organic phase partition coefficients of methyl bromide in these and other potential organic liquids may be determined by adding a known amount of an organic liquid and methyl bromide to a 250 mL flask with TEFLON-lined silicon septa. A gas headspace may be analyzed for methyl bromide by gas chromatography, and the partition of methyl bromide may be calculated. In certain embodiments, corn oil may be preferred since the air/corn oil partition coefficient for methyl bromide is 0.02, i.e., about ten times lower than with water. Based on calculations, a Henry coefficient of 0.005 may be ideal for load dampening. The organic phase should meet various requirements, such as a low vapor pressure, low toxicity, non-miscibility with water, and being non-biodegradable. Additional examples of liquids may include di-n-octylphtalate, di-n-nonylphtalate, polydimethylsiloxane, and silicone oil. Methyl bromide concentrations in the inlet and outlet air may be determined (continuously or semi-continuously) with a photoionization detector (PID) analyzer, for example. […] Potential carry over of aerosol to the outlet stream may be determined to evaluate whether a demister might be beneficial. For either the GAC or liquid absorption system, the results may be analyzed with mathematical model (see FIG. 19).

| SMILES | Removal efficiency ([1]; gas flow cocurrent, EBRT = 94 s, inlet 3.042 g/m^3) [%] | Removal efficiency ([1]; gas flow countercurrent (standard operation), EBRT = 94 s, inlet 3.713 g/m^3) [%] | Concentration at which a reduction of the elimination capacity (toxic effect on microorganisms) was observed ([1]; inlet air concentration (3300 ppm)) | Removal efficiency ([1]; low inlet concentrations increasing up to 3 g/m^3) | Removal efficiency ([1]; superficial liquid velocity 2.0 m/h (standard operation), EBRT = 94 s, inlet 2.927 g/m^3) [%] | Removal efficiency ([1]; superficial liquid velocity 17.7 m/h, EBRT = 94 s, inlet 2.927 g/m^3) [%] | Air/corn oil partition coefficient [2] | NaBr concentration in the recycle liquid at which inhibition of methyl bromide removal was observed ([1]; recycle liquid (48 g/L)) [M] |
| --- | --- | --- | --- | --- | --- | --- | --- | --- |
| CBr [Methyl bromide] | 63 | 70 | greater than 13 g/m^3 | greater than 96% | 89 | 91 | 0.02 |  |
| [Br-].[Na+] [NaBr, sodium bromide] |  |  |  |  |  |  |  | ≥ 0.47 |
